PMC5610242, “Stapled peptide inhibitors of RAB25 target context-specific phenotypes in cancer” (Nature Communications, 2017)
Blank lines part the entries; values can stand above or below the compound they belong to. Bridge positions count the residues as written; N and C are the ends. Square brackets hold non-standard residues; d marks the D form. Ends that are not written are not given here. Peptide text beside a SMILES is read from it. * marks the point of attachment. FITC = O=C1OC2(c3ccc(O)cc3Oc3cc(O)ccc32)c2ccc(NC(=S)*)cc21; S5 = C=CCCC[C@](C)(N)C(=O)O; Nle = CCCC[C@H](N)C(=O)O; PEG = not defined here; βAla = NCCC(=O)O

Key:
[1] = Circular dichroism spectroscopy and thermal denaturation; format: physicochemical; settings: 50 μM peptide in deionized water, 190–260 nm, room temperature
Procedure: Circular dichroism spectroscopy experiments were performed on a Jasco J-170 using a quartz cuvette (path length: 0.1 cm). Peptides were dissolved to 50 μM in deionized water and CD measurements were recorded at one nm increments between 190 and 260 nm, at room temperature. Thermal denaturation experiments were performed by recording CD absorbance at 222 nm at one-degree increments from 10 to 90 °C using a thermostat-controlled cuvette chamber. Raw denaturation data were fit to sigmoidal curves with Prizm 5 software, and the half-maximal temperature was reported as the peptide T m.

[2] = molecular target: T1, RAB11a (activated Q70L mutant) (Homo sapiens, UniProt P62491, Q70L); assay: Fluorescence polarization binding of FITC-labeled RFP peptides to RAB11a; settings: FP, 25 nM FITC-RFP peptide, 30 min room temperature
T1 construct: GST-RAB11a (1–173, Q70L mutant) in pGEX5x-1; made in house; host or cells: E. coli BL21
T1 sequence (P62491 1-173 Q70L): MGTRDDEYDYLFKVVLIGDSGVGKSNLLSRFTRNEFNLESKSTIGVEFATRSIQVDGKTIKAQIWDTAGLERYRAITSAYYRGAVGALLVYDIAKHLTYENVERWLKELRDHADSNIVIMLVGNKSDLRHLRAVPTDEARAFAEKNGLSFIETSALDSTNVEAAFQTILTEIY
Procedure: (§1) Fluorescence polarization assays were performed with for GST-RAB25 and GST-RAB11a to quantify binding to FITC-labeled unmodified and stapled RFP peptides. Initial fluorescence polarization measurements for RFP1−RFP13 were made by incubating FITC-RFP peptides (25 nM) with threefold dilutions of a given protein in FP buffer, consisting of 20 mM Tris pH 8.0, 150 mM NaCl, 5 mM MgCl2, 2 mM DTT, 10 μM GTP and 2% glycerol. Dilutions and incubations were performed in 96-well, black flat-bottom plates (Nunc) to a total volume of 100 μL, and equilibrated at room temperature for 30 min. Polarization was measured on a Spetramax-M5 multi-label plate reader (Molecular Devices) with λ ex = 485 nm and λ em = 525 nm. Polarization values were determined using the equation: P = (V − H)/(V + H), where P denotes polarization, V denotes vertical emission intensity and H represents horizontal emission intensity. Fraction bound was calculated using the equilibrium maximum polarization value obtained for a given protein among ligands, to which background-subtracted fluorescence polarization values were internally normalized. Fluorescence polarization measurements for FITC-RFP14, 24, 26, 31, and 32 were performed as detailed above with the exception that 10 nM FITC-ligand was used.

RAB25 = molecular target: T2, RAB25 (Homo sapiens, UniProt P57735); assay: Fluorescence polarization binding of FITC-labeled RFP peptides to RAB25; settings: FP, 30 min room temperature
T2 construct: GST-RAB25 (1–180) in pET41 Ek/LIC; made in house; host or cells: E. coli BL21
T2 sequence (P57735 1-180): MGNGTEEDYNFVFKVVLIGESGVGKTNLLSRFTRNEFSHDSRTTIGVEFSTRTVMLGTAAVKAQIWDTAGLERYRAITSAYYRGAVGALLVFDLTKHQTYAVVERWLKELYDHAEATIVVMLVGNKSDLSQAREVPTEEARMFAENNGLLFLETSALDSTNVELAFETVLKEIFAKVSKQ
Procedure: as §1

[3] = tested on: all cell lines tested (HEY, MCF7, MDA-MB231); assay: Toxicity seen in wound healing studies; format: cell-based; settings: 10 μM
Procedure: Cells were seeded at a density of 5000–7000 cells for HEY and MDA-MB231 or 15,000 cells for MCF7 on each side of an Ibidi culture insert (Ibidi, Munich, Germany), with a 500 μm separation between each side of the well, and allowed to grow for 24 h to attain a compact monolayer. Cells were pretreated with, or without, RFP peptides (10 μM) or DMSO control for 12 h before removal of the insert, and following removal of the insert cells were incubated in RFP-containing media or DMSO control for the duration of wound closure. Cells were photographed using a Life Technologies EVOS XL Core imaging system 4× or a Nikon DS camera connected to a Nikon Eclipse Ti microscope objective at insert removal (0 h) and when wound closure was complete under control conditions. Experiments were performed in duplicate and a minimum of four fields of the injury were photographed and used for quantification.

MCF7 cells = assay: Confocal fluorescence microscopy for peptide cellular penetration; format: in vitro ADME; settings: 5 μM FITC-labeled peptide, 10% FBS-containing RPMI, 8 h, 37 °C
Procedure: MCF7 cells were grown in 8-well chamber slides (Ibidi) and treated with FITC-labeled RFPs (5 μM) in 10% FBS-containing RPMI for 8 h at 37 °C. Cells were washed 5× in PBS, fixed in 2% paraformaldehyde/PBS and stained with DAPI according to the manufacturer’s protocol (Sigma). A coverslip was mounted onto the slide and confocal fluorescence microscopy performed with an Olympus DSU spinning disk confocal microscope (Olympus Corporation of the Americas, Center Valley, PA) with a Hamamatsu model C9100 EM-CCD camera (Hamamatsu Photonics, Skokie, IL) run by SlideBook v5.0 software (Intelligent Imaging Innovations, Denver, CO). Post-acquisition processing (multi-channel overlay) was performed using ImageJ software (NIH). Results are representative of images taken from three fields across the same well in at least two biological replicates.

- binding to RAB11a (in words) [2]: micromolar affinities
- binding to RAB25 (in words) (RAB25; 25 nM FITC-RFP peptide): micromolar affinities
Compound: RFP4: unmodified FIP4 peptide ({FITC-PEG}-EQEEINFRLRQYMDKIILAILDHNPSILEIKH; reading uncertain)
- CD spectrum, secondary structure [1]: partially disordered peptide folds

Compound: CCCC[C@H](NC(=O)[C@@H](NC(=O)[C@H](CCCNC(=N)N)NC(=O)[C@@H](NC(=O)[C@@H](NC(=O)[C@]1(C)CCCC=CCCC[C@](C)(NC(=O)[C@H](CC(N)=O)NC(=O)[C@H](CCC(N)=O)NC(=O)[C@H](CC(C)C)NC(=O)[C@H](CCCNC(=N)N)NC(=O)[C@H](Cc2ccccc2)NC(=O)[C@H](CC(N)=O)NC(=O)[C@@H](NC(=O)[C@H](CCCNC(=N)N)NC(=O)CCNC(=O)[C@@H](N)Cc2c[nH]c3ccccc23)[C@@H](C)CC)C(=O)N[C@@H]([C@@H](C)CC)C(=O)N[C@@H](CC(=O)O)C(=O)N[C@@H](CCCNC(=N)N)C(=O)N1)[C@@H](C)CC)C(C)C)[C@@H](C)CC)C(=O)N[C@@H](CCC(=O)O)C(=O)N[C@H](C(=O)N[C@@H](CC(N)=O)C(=O)N1CCC[C@H]1C(=O)N[C@@H](CO)C(=O)N[C@H](C(=O)N[C@@H](CC(C)C)C(=O)N[C@@H](CCCNC(=N)N)C(=O)N[C@H](C(=O)N[C@@H](CCCCN)C(N)=O)C(C)C)[C@@H](C)CC)[C@@H](C)O [RFP26] (H-W[βAla]RINFRLQN[S5]IDR[S5]IVRI[Nle]ETNPSILRVK-NH2; staple 11-15)
- toxicity in wound healing studies [3]: considerable toxicity

- cellular uptake and distribution (MCF7 cells; listed as FITC-RFP14): comparable cellular uptake
- Kd (RAB25; 10 nM FITC-ligand, GST-RAB25, FP buffer pH 8.0 with 10 μM GTP, mean with 95% C.I., triplicate, read-out: apparent Kd (95% C.I.) RAB25): 40 nM
Compound: CCCC[C@@H]1NC(=O)[C@H](C(C)C)NC(=O)[C@@](C)(NC(=O)[C@@H](NC(=O)[C@H](CC(C)C)NC(=O)[C@H](CC(C)C)NC(=O)[C@H](CCCNC(=N)N)NC(=O)[C@H](CC(=O)O)NC(=O)[C@@H](NC(=O)[C@H](Cc2ccc(O)cc2)NC(=O)[C@H](CC(N)=O)NC(=O)[C@H](CCC(=O)O)NC(=O)[C@H](CC(C)C)NC(=O)[C@H](CCC(=O)O)NC(=O)[C@H](CCCNC(=N)N)NC(=O)[C@@H](NC(=O)[C@H](CCC(N)=O)NC(=O)[C@H](CCCNC(=N)N)NC(=O)CCNC(=O)[C@@H](N)Cc2c[nH]c3ccccc23)C(C)C)[C@@H](C)CC)C(C)C)CCCC=CCCC[C@@](C)(C(=O)N[C@H](C(=O)N2CCC[C@H]2C(=O)N[C@@H](CC(N)=O)C(=O)N[C@H](C(=O)N[C@@H](CC(C)C)C(=O)N[C@@H](CCCNC(=N)N)C(=O)N[C@H](C(=O)N2CCC[C@H]2C(=O)N[C@@H](CCCNC(=N)N)C(N)=O)[C@@H](C)CC)[C@@H](C)CC)[C@@H](C)O)NC(=O)[C@H](CCC(=O)O)NC1=O [RFP14] (H-W[βAla]RQVRELENYIDRLLV[S5]V[Nle]E[S5]TPNILRIPR-NH2; staple 18-22)
- cellular uptake and distribution (MCF7 cells): significant cellular uptake and distribution throughout the cytosol and nucleus
